system: TNF-α production in LPS stimulated THP-1 cells; assay: Inhibition of TNF-α production in LPS stimulated THP-1 cells (ELISA); type: cell-based, human; conditions: screen 1; 40 μM peptide; mean relative secretion, LPS-stimulated level without peptide = 100%, basal = 0%
Description: (§1) After 6 hours of incubation at +37° C., 5% CO2 and in a humid atmosphere, the cell supernatants were collected, centrifuged and kept frozen in −20° C. until analyzed for TNF-α content by ELISA (R&D Systems, Minneapolis, Minn., USA). The results are presented as mean relative secretion (%), with stimulated TNF-α level without peptide added set to 100% and basal secretion set to 0% (Table 2).
as §1, with “incubation,” for “incubation at +37° C., 5% CO2 and in a humid atmosphere,”, “centrifuged,” for “centrifuged”, “5).” for “2).”

Sequence | TNF-α at 40 μM peptide
EATKCFQWQRNMRKVR [Peptide 158] | 91%

same assay, conditions: screen 2; 40 μM peptide; mean relative secretion, LPS-stimulated level without peptide = 100%, basal = 0%

Sequence | TNF-α at 40 μM peptide
VSQSEATKRFQWLRNLRKVL [Peptide 214] | 88.8%
QREARKRFQWLRNMTKVR [Peptide 201] | 128.6%
TKCFLWRRNMRKVRG [Peptide 242] | 116.8%
LVKRLNRLWQFRKTAESQ [Peptide 216] | 121.9%
QSAARTFKQWARNLRKTL [Peptide 210] | 101.0%
LRTWRRLTRKVW [Peptide 234] | 102.0%
LVWIKRHIKKFK [Peptide 246] | 125.5%
CRLWRRRMRKVW [Peptide 233] | 90.7%
CFLWRRNMRKVR [Peptide 227] | 111.0%
LRLWRRSMRKVW [Peptide 235] | 89.3%
CFLWRRSMRRLR [Peptide 236] | 94.4%
QSEATKRFQWLRNLRKVL [Peptide 217] | 103.0%
QSRATKRFQWHRNARKVL [Peptide 207] | 160.9%
WFKCFQWQRNMRKVR [Peptide 243] | 113.1%
QSEYTKRYQWLRNLRKVL [Peptide 204] | 96.9%
VWIVKKQVKRIK [Peptide 245] | 146.3%
QESARKQFRWLRNLTKVL [Peptide 202] | 90.3%
QSRATKRFQWLRNHRKVL [Peptide 208] | 130.2%
QREARKFRQWLRNMTKVR [Peptide 203] | 98.1%
CRLWRRNMRKVR [Peptide 229] | 108.5%
GRRRRSVQWCA [Peptide 255] | 100.7%
QSEATKCFLWRRNMRKVR [Peptide 225] | 111.6%
QSAKTACFLWRRNMRKVR [Peptide 226] | 108.7%
CFLWRRLMRKV [Peptide 237] | 89.2%
QSLAEKLFWQLRNLRKVR [Peptide 221] | 94.4%
WRRWLRKSVKRL [Peptide 247] | 88.2%
